Experimental data from patent US6737383B1, “Herbicidal oxadiazolidines” (priority 1999, dated 2004).

Tests used:
[1] = system: purple nutsedge; experiment: Test B pre/postemergence purple nutsedge; type: in vivo, Cyperus rotundus
Method in brief: (§1)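 Response is a visual 0-to-10 score relative to untreated plants, where 0 means no effect and 10 means complete control, taken twelve to sixteen days after application. Treatments went onto soil at planting and onto foliage of 1- to 4-leaf plants, using a surfactant-containing non-phytotoxic solvent.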

[2] = system: rape; experiment: Test B pre/postemergence rape; type: in vivo, Brassica napus
Method in brief: as §1

[3] = system: morningglory; experiment: Test B pre/postemergence morningglory; type: in vivo, Ipomoea hederacea
Method in brief: as §1

[4] = system: soybean; experiment: Test B pre/postemergence soybean; type: in vivo, Glycine max
Method in brief: as §1

[5] = system: velvetleaf; experiment: Test B pre/postemergence velvetleaf; type: in vivo, Abutilon theophrasti
Method in brief: as §1

[6] = system: wild oat; experiment: Test B pre/postemergence wild oat; type: in vivo, Avena fatua
Method in brief: as §1

[7] = system: bedstraw; experiment: Test B pre/postemergence bedstraw; type: in vivo, Galium aparine
Method in brief: as §1

[8] = system: smallflower flatsedge; experiment: Test B flood test smallflower flatsedge; type: in vivo, Cyperus difformis
Method in brief: (§2)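 Plants were grown to the 2-leaf stage before treatment with test chemical, then held in a greenhouse for twelve to sixteen days. Injury was visually rated against untreated controls on a 0–10 scale, where 0 is no effect and 10 is complete control.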

[9] = system: corn; experiment: Test B pre/postemergence corn; type: in vivo, Zea mays
Method in brief: as §1

[10] = system: blackgrass; experiment: Test B pre/postemergence blackgrass; type: in vivo, Alopecurus myosuroides
Method in brief: as §1

[11] = system: rice; experiment: Test B flood test rice; type: in vivo, Oryza sativa
Method in brief: as §2

[12] = system: wheat; experiment: Test B pre/postemergence wheat; type: in vivo, Triticum aestivum
Method in brief: as §1

[13] = system: surinam grass; experiment: Test B pre/postemergence surinam grass; type: in vivo, Brachiaria decumbens
Method in brief: as §1

[14] = system: crabgrass; experiment: Test B pre/postemergence crabgrass; type: in vivo, Digitaria sanguinalis
Method in brief: as §1

[15] = system: giant foxtail; experiment: Test B pre/postemergence giant foxtail; type: in vivo, Setaria faberii
Method in brief: as §1

[16] = system: duck salad; experiment: Test B flood test duck salad; type: in vivo, Heteranthera limosa
Method in brief: as §2

[17] = Postemergence, Rate 62 g/ha, scale of 0 to 10, 0 is no effect, 10 is complete control
[18] = Postemergence, Rate 125 g/ha, scale 0 to 10, 0 is no effect, 10 is complete control
[19] = Postemergence, Rate 500 g/ha, scale 0 to 10, 0 is no effect, 10 is complete control
[20] = Preemergence, Rate 62 g/ha, scale 0 to 10 (0 no effect, 10 complete control)
[21] = Preemergence, Rate 125 g/ha, scale 0 to 10, 0 is no effect, 10 is complete control
[22] = Preemergence, Rate 500 g/ha, scale of 0 to 10 where 0 is no effect and 10 is complete control
[23] = Rate 250 g/ha, Postemergence, scale of 0 to 10 where 0 is no effect and 10 is complete control
[24] = Rate 62 g/ha, flood test species, Pre-emergence, visual evaluation after twelve to sixteen days
[25] = Rate 125 g/ha, under heading Pre-emergence, flood test species, visual evaluation after twelve to sixteen days
[26] = Rate 250 g/ha, Pre-emergence (flood test species), scale 0 to 10, 0 is no effect, 10 is complete control
[27] = Rate 500 g/ha, Pre-emergence section of Table B, 0 to 10 scale (0 no effect, 10 complete control)

CC(C)N(C(=O)n1oc(=O)n(CC2CCC2)c1=O)c1ccc(Cl)cc1 [Compound 550]
Nutsedge plant response rating [1, 17]: 0
Nutsedge plant response rating [1, 18]: 0
Plant response rating, Nutsedge [1, 19]: 2
Nutsedge plant response rating [1, 20]: 0
Nutsedge plant response rating [1, 21]: 0
Nutsedge plant response rating (0 to 10 scale) ([1]; Preemergence, Rate 250 g/ha): 0
Nutsedge plant response rating [1, 22]: 6
Plant response rating, Nutsedge [1, 23]: 0
Rape plant response rating [2, 17]: 0
Rape plant response rating [2, 18]: 3
Plant response rating, Rape [2, 19]: 3
Rape plant response rating [2, 20]: 0
Rape plant response rating [2, 21]: 0
Rape plant response rating (0 to 10 scale) ([2]; Preemergence, Rate 250 g/ha): 6
Rape plant response rating [2, 22]: 9
Morningglory plant response rating [3, 17]: 1
Morningglory plant response rating [3, 18]: 1
Plant response rating, Morningglory [3, 19]: 8
Morningglory plant response rating [3, 20]: 0
Morningglory plant response rating [3, 21]: 0
Morningglory plant response rating (0 to 10 scale) ([3]; Preemergence, Rate 250 g/ha): 0
Morningglory plant response rating [3, 22]: 0
Plant response rating, Morningglory [3, 23]: 9
Soybean plant response rating [4, 17]: 2
Soybean plant response rating [4, 18]: 2
Plant response rating, Soybean [4, 19]: 3
Soybean plant response rating [4, 20]: 0
Soybean plant response rating [4, 21]: 0
Soybean plant response rating (0 to 10 scale) ([4]; Preemergence, Rate 250 g/ha): 0
Soybean plant response rating [4, 22]: 0
Plant response rating, Soybean [4, 23]: 3
Velvetleaf plant response rating [5, 17]: 0
Velvetleaf plant response rating [5, 18]: 0
Plant response rating, Velvetleaf [5, 19]: 2
Velvetleaf plant response rating [5, 20]: 0
Velvetleaf plant response rating [5, 21]: 0
Velvetleaf plant response rating (0 to 10 scale) ([5]; Preemergence, Rate 250 g/ha): 2
Velvetleaf plant response rating [5, 22]: 4
Plant response rating, Velvetleaf [5, 23]: 0
Wild oats plant response rating [6, 17]: 0
Wild oats plant response rating [6, 18]: 2
Plant response rating, Wild oats [6, 19]: 3
Wild oats plant response rating [6, 20]: 0
Wild oats plant response rating [6, 21]: 0
Wild oats plant response rating (0 to 10 scale) ([6]; Preemergence, Rate 250 g/ha): 2
Wild oats plant response rating [6, 22]: 8
Plant response rating, Wild oats [6, 23]: 4
Bedstraw plant response rating [7, 17]: 0
Bedstraw plant response rating [7, 18]: 0
Plant response rating, Bedstraw [7, 19]: 0
Bedstraw plant response rating [7, 20]: 0
Bedstraw plant response rating [7, 21]: 0
Bedstraw plant response rating (0 to 10 scale) ([7]; Preemergence, Rate 250 g/ha): 0
Bedstraw plant response rating [7, 22]: 3
Plant response rating, Bedstraw [7, 23]: 0
Plant response rating, S. Flatsedge (0 to 10 scale, 0 is no effect, 10 is complete control) [8, 24]: 0
S. Flatsedge plant response rating (0 to 10 scale, 0 is no effect, 10 is complete control) [8, 25]: 0
S. Flatsedge plant response rating [8, 26]: 0
S. Flatsedge plant response rating [8, 27]: 0
Corn plant response rating [9, 17]: 0
Corn plant response rating [9, 18]: 0
Plant response rating, Corn [9, 19]: 2
Corn plant response rating [9, 20]: 0
Corn plant response rating [9, 21]: 0
Corn plant response rating (0 to 10 scale) ([9]; Preemergence, Rate 250 g/ha): 0
Corn plant response rating [9, 22]: 0
Plant response rating, Corn [9, 23]: 0
Blackgrass plant response rating [10, 17]: 0
Blackgrass plant response rating [10, 18]: 0
Plant response rating, Blackgrass [10, 19]: 2
Blackgrass plant response rating [10, 20]: 0
Blackgrass plant response rating [10, 21]: 2
Blackgrass plant response rating (0 to 10 scale) ([10]; Preemergence, Rate 250 g/ha): 7
Blackgrass plant response rating [10, 22]: 9
Plant response rating, Blackgrass [10, 23]: 2
Plant response rating, Rice (0 to 10 scale, 0 is no effect, 10 is complete control) [11, 24]: 0
Rice plant response rating (0 to 10 scale, 0 is no effect, 10 is complete control) [11, 25]: 0
Rice plant response rating [11, 26]: 0
Rice plant response rating [11, 27]: 0
Wheat plant response rating [12, 17]: 0
Wheat plant response rating [12, 18]: 0
Plant response rating, Wheat [12, 19]: 0
Wheat plant response rating [12, 20]: 0
Wheat plant response rating [12, 21]: 2
Wheat plant response rating (0 to 10 scale) ([12]; Preemergence, Rate 250 g/ha): 2
Wheat plant response rating [12, 22]: 2
Plant response rating, Wheat [12, 23]: 0
B. signalgrass plant response rating [13, 17]: 0
B. signalgrass plant response rating [13, 18]: 0
Plant response rating, B. signalgrass [13, 19]: 2
B. signalgrass plant response rating [13, 20]: 6
B. signalgrass plant response rating [13, 21]: 9
B. signalgrass plant response rating (0 to 10 scale, 0 is no effect, 10 is complete control) ([13]; Preemergence, Rate 250 g/ha): 9
B. signalgrass plant response rating [13, 22]: 10
Plant response rating, B. signalgrass [13, 23]: 2
Crabgrass plant response rating [14, 18]: 7
Crabgrass plant response rating [14, 20]: 4
Crabgrass plant response rating [14, 21]: 10
Crabgrass plant response rating (0 to 10 scale) ([14]; Preemergence, Rate 250 g/ha): 10
Crabgrass plant response rating [14, 22]: 10
Plant response rating, Crabgrass [14, 23]: 10
Giant foxtail plant response rating [15, 17]: 2
Giant foxtail plant response rating [15, 18]: 6
Plant response rating, Giant foxtail [15, 19]: 9
Giant foxtail plant response rating [15, 20]: 7
Giant foxtail plant response rating [15, 21]: 9
Giant foxtail plant response rating (0 to 10 scale) ([15]; Preemergence, Rate 250 g/ha): 10
Giant foxtail plant response rating [15, 22]: 10
Plant response rating, Giant foxtail [15, 23]: 9
Plant response rating, Ducksalad (0 to 10 scale, 0 is no effect, 10 is complete control) [16, 24]: 0
Ducksalad plant response rating (0 to 10 scale, 0 is no effect, 10 is complete control) [16, 25]: 0
Ducksalad plant response rating [16, 26]: 0
Ducksalad plant response rating [16, 27]: 0
